Experiment [1] concerns the target T1, Serotonin (5-Hydroxytryptamine) 5-HT2A (Homo sapiens, UniProt P28223).
T1 construct: Panlabs (SafetyScreen44 panel)
Description: SafetyScreen44 (Panlabs) panel, replacement of standard ligand. It is filed as binding. Particulars: hum.

A further experiment has as its target T2, MAO-A (Homo sapiens, UniProt P21397).
T2 construct: Panlabs (SafetyScreen44 panel)
Description: SafetyScreen44 (Panlabs) panel. Particulars: 10 μM. The experiment is classed as biochemical. As to the method:
(§1) Other targets included with less than ≥50% stimulation at a concentration of 10 μM: Acetylcholinesterase, COX-1, COX-2, MAO-A, PDE3A, PDE4D2, Protein Tyrosine Kinase (LCK), Adenosine A2A, Adrenergic α1A, Adrenergic α2A, Adrenergic β1, Adrenergic β2, Androgen (Testosterone), Calcium Channel L-Type (Dihydropyridine), CB1, CB2, Cholecystokinin CCK1 (CCKA), Dopamine D1, Dopamine D2S, Endothelin ETA, GABAA (Flunitrazepam, Central), Glucocorticoid, Glutamate-NMDA (Agonism), Histamine H1, Histamine H2, Muscarinic M1, Muscarinic M2, Muscarinic M3, Nicotinic Acetylcholine α4β2, (Cytisine), DOP, KOP, MOP, Potassium Channel [KA], Potassium Channel hERG, Serotonin (5-Hydroxytryptamine) 5-HT1A, 5-HT1B, 5-HT3, Na-channel site 2, DAT, NET, SERT, Vasopressin V1A

Experiment [2] deals with T3, Protein Tyrosine Kinase (LCK) (Homo sapiens, UniProt P06239).
T3 construct: Panlabs (SafetyScreen44 panel)
As to the kind of experiment: SafetyScreen44 (Panlabs) panel. Particulars: 10 μM. It is filed as biochemical. The method, then: as §1

The next experiment addresses T4, Acetylcholinesterase (Homo sapiens, UniProt P22303).
T4 construct: Panlabs (SafetyScreen44 panel)
As to the kind of experiment: SafetyScreen44 (Panlabs) panel. The experiment is classed as biochemical. The note with it: 10 μM. As to the method: as §1

Another experiment addresses T5, PDE4D2 (Homo sapiens, UniProt Q08499).
T5 construct: Panlabs (SafetyScreen44 panel)
As to the kind of experiment: SafetyScreen44 (Panlabs) panel. It is filed as biochemical. The note with it: 10 μM. The method, then: as §1

Another experiment deals with T6, COX-2 (Homo sapiens, UniProt P35354).
T6 construct: Panlabs (SafetyScreen44 panel)
As to the kind of experiment: SafetyScreen44 (Panlabs) panel. It is filed as biochemical. The note with it: 10 μM. As to the method:
as §1

For the next experiment, the target named is T7, COX-1 (Homo sapiens, UniProt P23219).
T7 construct: Panlabs (SafetyScreen44 panel)
Description: SafetyScreen44 (Panlabs) panel. It is filed as biochemical. Particulars: 10 μM. The method, then:
as §1

The target of another experiment is T8, PDE3A (Homo sapiens, UniProt Q14432).
T8 construct: Panlabs (SafetyScreen44 panel)
Description: SafetyScreen44 (Panlabs) panel. Particulars: 10 μM. It is filed as biochemical. As to the method: as §1

A further experiment concerns the target 5-HT2A (Homo sapiens, UniProt P28223). As to the kind of experiment: IP1 agonist functional assay. The experiment is classed as cell-based. Particulars: 5HT2A versus 5HT2B, relative agonism potencies.
In a further experiment the target is 5-HT2B (Homo sapiens, UniProt P41595). As to the kind of experiment: IP1 agonist functional assay. It is filed as cell-based.
Another experiment can be described thus: Forced swim test. The note with it: mice, 10 mg/kg s.c., 15 minutes post injection. The experiment is classed as in vivo, Mice (C57bl/6J). The method, then:
FIG. 1. […] N=5 mice (saline), N=10 (imipramine as a positive control), N=9 mice (Ariadne cohort). Y-axis show the immobility time per each testing session. Drugs were administered subcutaneously (s.c.).
Mice (C57bl/6J, 8-15 weeks, 29-35 g) were weighed and moved to the testing room 30 minutes prior to experimentation. Mice were administered 0.85% saline (s.c., 5 mice), imipramine 15 mg/kg (i.p., 10 mice), or Ariadne (32) 10 mg/kg (s.c., 9 mice). 15 minutes post injection the mice were moved to a forced swim cylinder with water kept at 23.8-25.0 degrees celsius. Mice were allowed to swim for 6 minutes after which they were removed, dried, and returned to their home cage. The last four minutes of the forced swim video footage was analyzed with Noldus FST scoring software. The mouse's view of the FST cylinder was obstructed prior to starting the forced swim test.

A further experiment has as its system Glutamate-NMDA (Agonism). As to the kind of experiment: SafetyScreen44 (Panlabs) panel. It is filed as binding. Particulars: 10 μM. As to the method:
as §1

The next experiment deals with T9, 5-HT3 (Homo sapiens, UniProt P46098).
T9 construct: Panlabs (SafetyScreen44 panel)
As to the kind of experiment: SafetyScreen44 (Panlabs) panel. The experiment is classed as binding. The note with it: 10 μM. As to the method:
as §1

Experiment [3] deals with GABAA (Flunitrazepam, Central). As to the kind of experiment: SafetyScreen44 (Panlabs) panel. Particulars: 10 μM. It is filed as binding. The method, then:
as §1

The next experiment deals with T10, SERT (Homo sapiens, UniProt P31645).
T10 construct: Panlabs (SafetyScreen44 panel)
Description: SafetyScreen44 (Panlabs) panel. The experiment is classed as binding. The note with it: 10 μM. As to the method:
as §1

The target in a further experiment is T11, KOP (Homo sapiens, UniProt P41145).
T11 construct: Panlabs (SafetyScreen44 panel)
Description: SafetyScreen44 (Panlabs) panel. It is filed as binding. Particulars: 10 μM. As to the method: as §1

The target of the next experiment is T12, Vasopressin V1A (Homo sapiens, UniProt P37288).
T12 construct: Panlabs (SafetyScreen44 panel)
As to the kind of experiment: SafetyScreen44 (Panlabs) panel. The experiment is classed as binding. The note with it: 10 μM. The method, then:
as §1

In another experiment the target is T13, Glucocorticoid (Homo sapiens, UniProt P04150).
T13 construct: Panlabs (SafetyScreen44 panel)
Description: SafetyScreen44 (Panlabs) panel. The experiment is classed as binding. The note with it: 10 μM. The method, then: as §1

A further experiment deals with T14, Histamine H1 (Homo sapiens, UniProt P35367).
T14 construct: Panlabs (SafetyScreen44 panel)
Description: SafetyScreen44 (Panlabs) panel. It is filed as binding. The note with it: 10 μM. The method, then: as §1

In another experiment the target is T15, Muscarinic M2 (Homo sapiens, UniProt P08172).
T15 construct: Panlabs (SafetyScreen44 panel)
Description: SafetyScreen44 (Panlabs) panel. The experiment is classed as binding. Particulars: 10 μM. As to the method: as §1

In the next experiment the target is T16, Endothelin ETA (Homo sapiens, UniProt P25101).
T16 construct: Panlabs (SafetyScreen44 panel)
As to the kind of experiment: SafetyScreen44 (Panlabs) panel. Particulars: 10 μM. It is filed as binding. The method, then:
as §1

The next experiment concerns the target T17, Adrenergic α1A (Rattus norvegicus, UniProt P43140).
T17 construct: Panlabs (SafetyScreen44 panel)
Description: SafetyScreen44 (Panlabs) panel. The experiment is classed as binding. Particulars: 10 μM. As to the method: as §1

In a further experiment the target is T18, Muscarinic M3 (Homo sapiens, UniProt P20309).
T18 construct: Panlabs (SafetyScreen44 panel)
Description: SafetyScreen44 (Panlabs) panel. The experiment is classed as binding. Particulars: 10 μM. As to the method:
as §1

For experiment [4], the target named is T19, Nicotinic Acetylcholine α4β2, (Cytisine) (Homo sapiens, UniProt P17787+P43681).
T19 construct: Panlabs (SafetyScreen44 panel)
As to the kind of experiment: SafetyScreen44 (Panlabs) panel. The experiment is classed as binding. Particulars: 10 μM. The method, then:
as §1

Molecules are shown by their SMILES.

T2 sequence (P21397 whole entry): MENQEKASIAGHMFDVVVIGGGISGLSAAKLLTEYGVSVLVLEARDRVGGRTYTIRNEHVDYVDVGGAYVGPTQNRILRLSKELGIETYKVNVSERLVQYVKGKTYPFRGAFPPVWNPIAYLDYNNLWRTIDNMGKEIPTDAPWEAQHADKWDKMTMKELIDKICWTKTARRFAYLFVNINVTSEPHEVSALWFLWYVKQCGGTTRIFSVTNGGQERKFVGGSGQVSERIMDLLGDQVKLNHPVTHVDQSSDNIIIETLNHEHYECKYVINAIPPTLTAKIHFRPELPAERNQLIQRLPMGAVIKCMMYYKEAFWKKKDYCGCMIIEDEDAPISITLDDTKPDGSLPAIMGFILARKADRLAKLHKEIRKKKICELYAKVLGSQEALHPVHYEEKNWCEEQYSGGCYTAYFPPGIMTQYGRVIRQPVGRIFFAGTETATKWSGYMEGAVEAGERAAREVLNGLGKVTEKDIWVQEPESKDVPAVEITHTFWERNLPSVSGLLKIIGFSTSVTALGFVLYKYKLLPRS
T19 sequence (P43681 29-627 limits assumed): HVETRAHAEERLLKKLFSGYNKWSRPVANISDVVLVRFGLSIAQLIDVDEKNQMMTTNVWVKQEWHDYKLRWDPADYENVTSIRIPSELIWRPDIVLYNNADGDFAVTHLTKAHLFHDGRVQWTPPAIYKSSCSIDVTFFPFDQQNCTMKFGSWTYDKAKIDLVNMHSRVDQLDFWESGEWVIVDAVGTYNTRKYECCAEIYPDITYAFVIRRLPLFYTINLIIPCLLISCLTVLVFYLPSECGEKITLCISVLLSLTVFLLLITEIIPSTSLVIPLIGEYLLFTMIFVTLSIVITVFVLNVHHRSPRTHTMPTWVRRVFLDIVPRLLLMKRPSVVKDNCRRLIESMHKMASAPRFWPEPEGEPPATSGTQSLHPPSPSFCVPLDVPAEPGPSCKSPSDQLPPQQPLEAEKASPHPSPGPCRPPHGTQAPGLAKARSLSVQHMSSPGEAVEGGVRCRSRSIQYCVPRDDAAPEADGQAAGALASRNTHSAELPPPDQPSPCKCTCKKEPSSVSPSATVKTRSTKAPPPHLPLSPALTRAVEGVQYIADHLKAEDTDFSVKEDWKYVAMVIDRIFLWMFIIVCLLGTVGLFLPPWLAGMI
T19 sequence (P17787 26-502): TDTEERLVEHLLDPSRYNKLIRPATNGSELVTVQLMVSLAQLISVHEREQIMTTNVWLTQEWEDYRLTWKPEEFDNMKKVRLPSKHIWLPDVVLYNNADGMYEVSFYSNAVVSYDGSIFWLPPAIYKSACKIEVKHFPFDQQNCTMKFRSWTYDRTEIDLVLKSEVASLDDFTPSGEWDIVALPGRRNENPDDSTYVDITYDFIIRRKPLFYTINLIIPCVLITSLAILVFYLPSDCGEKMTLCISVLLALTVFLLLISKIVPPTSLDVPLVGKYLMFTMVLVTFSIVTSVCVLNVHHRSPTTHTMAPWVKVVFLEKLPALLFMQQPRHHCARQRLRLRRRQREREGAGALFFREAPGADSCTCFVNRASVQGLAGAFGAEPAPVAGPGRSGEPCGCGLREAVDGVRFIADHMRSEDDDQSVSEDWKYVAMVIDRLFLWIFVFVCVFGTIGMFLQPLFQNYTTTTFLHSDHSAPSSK
T1 sequence (P28223 whole entry): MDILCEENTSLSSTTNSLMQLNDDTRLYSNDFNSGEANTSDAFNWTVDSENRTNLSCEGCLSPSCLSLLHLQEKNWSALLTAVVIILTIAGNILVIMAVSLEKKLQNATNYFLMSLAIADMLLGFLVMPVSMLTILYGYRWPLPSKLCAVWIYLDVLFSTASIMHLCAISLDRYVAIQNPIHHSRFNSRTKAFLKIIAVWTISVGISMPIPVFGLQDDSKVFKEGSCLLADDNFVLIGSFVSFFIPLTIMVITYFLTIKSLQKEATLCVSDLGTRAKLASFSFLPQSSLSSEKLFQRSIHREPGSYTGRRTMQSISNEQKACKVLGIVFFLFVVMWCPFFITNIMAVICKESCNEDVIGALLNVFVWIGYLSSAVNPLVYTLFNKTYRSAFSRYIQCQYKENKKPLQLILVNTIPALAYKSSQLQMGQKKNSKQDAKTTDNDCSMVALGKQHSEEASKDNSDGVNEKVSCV
5-HT2A, sequence (P28223 whole entry): as above
T9 sequence (P46098 24-478, species assumed): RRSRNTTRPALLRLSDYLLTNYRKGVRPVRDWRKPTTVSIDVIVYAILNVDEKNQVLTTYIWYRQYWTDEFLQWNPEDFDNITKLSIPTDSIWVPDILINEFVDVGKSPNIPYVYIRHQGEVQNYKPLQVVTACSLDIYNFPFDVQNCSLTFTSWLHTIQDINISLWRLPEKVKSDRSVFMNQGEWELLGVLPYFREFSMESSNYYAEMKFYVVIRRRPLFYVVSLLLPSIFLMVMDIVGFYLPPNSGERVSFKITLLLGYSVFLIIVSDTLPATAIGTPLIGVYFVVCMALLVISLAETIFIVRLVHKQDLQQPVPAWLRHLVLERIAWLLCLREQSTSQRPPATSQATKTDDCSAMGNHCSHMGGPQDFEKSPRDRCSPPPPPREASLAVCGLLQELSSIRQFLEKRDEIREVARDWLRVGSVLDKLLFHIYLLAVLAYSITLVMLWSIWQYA
T12 sequence (P37288 whole entry): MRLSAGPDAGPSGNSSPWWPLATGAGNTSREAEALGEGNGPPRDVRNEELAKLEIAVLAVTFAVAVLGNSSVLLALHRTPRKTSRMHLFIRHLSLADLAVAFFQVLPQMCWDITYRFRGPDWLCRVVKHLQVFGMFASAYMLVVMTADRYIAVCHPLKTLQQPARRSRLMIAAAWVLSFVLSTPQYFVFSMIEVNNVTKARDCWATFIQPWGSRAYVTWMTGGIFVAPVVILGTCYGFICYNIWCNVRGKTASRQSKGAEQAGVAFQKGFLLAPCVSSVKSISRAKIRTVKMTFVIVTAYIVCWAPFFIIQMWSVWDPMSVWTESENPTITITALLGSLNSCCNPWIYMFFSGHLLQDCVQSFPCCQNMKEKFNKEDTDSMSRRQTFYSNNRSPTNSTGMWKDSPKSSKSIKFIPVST
T10 sequence (P31645 whole entry, species assumed): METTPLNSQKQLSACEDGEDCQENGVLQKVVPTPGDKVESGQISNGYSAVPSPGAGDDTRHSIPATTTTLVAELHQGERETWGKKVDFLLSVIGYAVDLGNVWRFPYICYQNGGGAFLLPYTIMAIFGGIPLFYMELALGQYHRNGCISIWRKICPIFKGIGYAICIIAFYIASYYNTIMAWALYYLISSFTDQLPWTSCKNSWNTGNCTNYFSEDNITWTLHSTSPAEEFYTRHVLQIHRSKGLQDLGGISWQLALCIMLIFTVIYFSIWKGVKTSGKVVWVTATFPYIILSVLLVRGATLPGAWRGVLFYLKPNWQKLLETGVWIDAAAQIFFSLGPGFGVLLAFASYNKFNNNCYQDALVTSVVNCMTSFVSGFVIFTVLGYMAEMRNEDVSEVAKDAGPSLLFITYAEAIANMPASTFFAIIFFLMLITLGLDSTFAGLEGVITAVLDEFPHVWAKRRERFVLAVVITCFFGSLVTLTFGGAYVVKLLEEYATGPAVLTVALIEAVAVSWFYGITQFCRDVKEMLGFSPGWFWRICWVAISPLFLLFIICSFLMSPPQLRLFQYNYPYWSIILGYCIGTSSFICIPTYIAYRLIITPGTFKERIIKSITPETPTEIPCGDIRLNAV
T4 sequence (P22303 32-614): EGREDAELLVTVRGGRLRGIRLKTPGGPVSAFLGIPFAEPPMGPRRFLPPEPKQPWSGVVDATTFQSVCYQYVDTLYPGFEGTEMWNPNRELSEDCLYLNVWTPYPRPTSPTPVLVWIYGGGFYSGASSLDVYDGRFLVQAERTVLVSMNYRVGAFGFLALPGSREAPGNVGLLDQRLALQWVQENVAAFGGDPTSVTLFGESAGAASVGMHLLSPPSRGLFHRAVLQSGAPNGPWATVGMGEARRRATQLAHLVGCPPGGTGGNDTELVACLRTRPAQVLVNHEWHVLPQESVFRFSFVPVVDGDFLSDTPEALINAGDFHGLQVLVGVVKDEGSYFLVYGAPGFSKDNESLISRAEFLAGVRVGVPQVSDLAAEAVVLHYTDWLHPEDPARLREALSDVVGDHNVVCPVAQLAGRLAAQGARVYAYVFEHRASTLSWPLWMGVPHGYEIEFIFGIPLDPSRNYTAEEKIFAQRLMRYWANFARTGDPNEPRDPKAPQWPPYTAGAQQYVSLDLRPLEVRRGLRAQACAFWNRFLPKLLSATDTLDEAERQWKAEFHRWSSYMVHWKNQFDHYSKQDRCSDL

For orientation: inhibition means the relative decrease from the control value, in per cent. Low values mean a response near the control, high ones a response far below the control. By EC50 is commonly meant the concentration at which the effect is half-maximal. Take `CCC(N)Cc1cc(OC)c(C)cc1OC` (stereo not drawn) [Ariadne (32), 1-(2,5-dimethoxy-4-methylphenyl)butan-2-amine]: in experiment [1], the inhibition at 10 µM was 72%. For the same molecule, the “% stimulation” value (on MAO-A; in experiment [2]; at Acetylcholinesterase; on PDE4D2; on COX-2; at COX-1) was under 50% in each case. Moreover, the “% stimulation” value (at PDE3A; with Glutamate-NMDA (Agonism); on 5-HT3; in experiment [3]; at SERT; at KOP) was under 50% each time. Further, the “% stimulation” value on Vasopressin V1A, at Glucocorticoid, at Histamine H1, on Muscarinic M2, on Endothelin ETA and at Adrenergic α1A was under 50% throughout. Moreover, the “% stimulation” value (at Muscarinic M3; in [4]) was under 50% in each case. In addition, the “Selectivity (EC50 2B ÷ EC50 2A)” value on 5-HT2A is listed as 25x. At 5-HT2B, this molecule gave an EC50 of over 32 µM. Moreover, the “antidepressant-like effects (immobility time)” value in the experiment “Forced swim test” is given as “antidepressant-like effects”.

The values above are taken from patent US20240109836A1, “NON-HALL[…] ANALOGS FOR TREATMENT OF NEUROLOGICAL AND PSYCHIATRIC DISORDERS” (The Trustees of Columbia University in the City of New York, priority 2021, published 2024).
